Experimental data published in patent US8461344B2, “Polymorph forms of (2S)-(4E)-N-methyl-5-[3-(5-isopropdxypyridin)yl]-4-penten-2-amine” (Targacept, Inc., priority 2006, dated 2013).

Molecular target: CNS nicotinic receptors
Test: Binding to relevant receptor sites
Conditions: free base used to prepare the salt forms, stated in words only
Protocol: Receptor binding constants provide a measure of the ability of the compound to bind to half of the relevant receptor sites of certain brain cells of the patient. See, Cheng, et al., Biochem. Pharmacol. 22:3099 (1973). The (2S)-(4E)-N-methyl-5-[3-(5-isopropoxypyridin)yl]-4-penten-2-amine compound used to prepare the salt forms has extremely high affinity for the relevant receptors, with a binding affinity in the low nM range.
Binding of the compounds to relevant receptor sites was determined in accordance with the techniques described in U.S. Pat. No. 6,953,855 to Mazurov et al. Inhibition constants (Ki values), reported in nM, were calculated from the IC50 values using the method of Cheng et al., Biochem, Pharmacol. 22:3099 (1973).

Q: With CN[C@@H](C)C/C=C/c1cncc(OC(C)C)c1 [(2S)-(4E)-N-methyl-5-[3-(5-isopropoxypyridin)yl]-4-penten-2-amine] as the compound, how does the binding affinity read?
A: low nM range
